Structures can show the parent of a compound that is named as a salt. Where two headings read alike, the source gives them in different places.
Tests used:
[1] = test system: conditioned avoidance (shelf-jump response); assay: conditioned avoidance (shelf-jump response) test; details: Rattus norvegicus, ip, read-out: AB50
Experimental: This test is carried out as follows:
Male CD rats (Charles River) maintained at approximately 400-450 gm body weight are used. […] A moveable wall, controlled by a motor, determines whether the rat has access to the shelf at any time during the experiment. The experimental chamber also contains a house light and sonalert. A steel grid floor in the main chamber is wired for presentation of electric shock. Each trial consists of a fifteen-second warning tone (conditioned stimulus), continuing for an additional fifteen seconds accompanied by electric shock, (unconditioned stimulus). A response (jumping onto the exposed shelf of the upper chamber) occurring during the initial fifteen-second warning tone is considered an avoidance response, while a response occurring during shock delivery is considered an escape response. […]
The following experimental parameters are recorded by computer: (1) the number of avoidance responses, (2) the number of escape responses, and (3) the number of trials in which no response occurred.
Response counts are summed over all subjects at a given dose. […] This number is expressed as a percentage of the total trials. Control performance is arbitrarily assigned a value of 100% for avoidance and the dose calculated to produce a 50% block in avoidance responding (AB50) is obtained from a dose-effect regression line fitted by the method of least squares.

[2] = target: limbic D-2 dopamine receptor (Rattus norvegicus, UniProt P61169); assay: inhibition of limbic D-2 dopamine receptor binding (3H-spiroperidol); parameters: species or system rats; details: for inhibition at 10 µM: read-out: Limbic D-2 Binding, inhibition at 10 μM
Experimental: The test is carried out as follows:

[3] = rat limbic tissue, 0.3 nM 3H-spiroperidol

limbic D-2 dopamine receptor, sequence (P61169 whole entry): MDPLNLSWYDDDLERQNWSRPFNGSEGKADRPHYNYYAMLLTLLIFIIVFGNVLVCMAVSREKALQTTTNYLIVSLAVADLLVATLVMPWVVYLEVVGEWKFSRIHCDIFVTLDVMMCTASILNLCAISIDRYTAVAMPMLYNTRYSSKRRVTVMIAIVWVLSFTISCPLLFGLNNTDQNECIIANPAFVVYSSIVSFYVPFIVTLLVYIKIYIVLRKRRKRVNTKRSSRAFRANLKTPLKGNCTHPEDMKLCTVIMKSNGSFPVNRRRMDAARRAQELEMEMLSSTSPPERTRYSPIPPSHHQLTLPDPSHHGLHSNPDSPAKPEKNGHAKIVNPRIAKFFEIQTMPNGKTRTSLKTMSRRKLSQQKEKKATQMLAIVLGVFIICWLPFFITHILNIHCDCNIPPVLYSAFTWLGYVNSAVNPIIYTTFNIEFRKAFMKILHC

Row | inhibition at 1 µM [2, 3] [%] | Compound | ED50 [1] [mg/kg] | inhibition at 10 µM [2] [%] | other results
1 |  | O=C1NC2(CC3CCC2C3)C(=O)N1CCCCN1CCN(c2ncccn2)CC1 (centres unmarked) [Example 2, 1-[4-[4-(2-Pyrimidinyl)-1-piperazinyl]butyl]spiro[bicyclo[2.2.1]heptane-2,4'-imidazolidine]-2',5'-dione, dihydrochloride] | 33.3 |  | Ki ([2]; rat limbic tissue, 0.3 nM 3H-spiroperidol, Table 1): 2000 nM
2 |  | Cl.Cl.O=C1CNC(=O)N1CCCCN1CCN(c2ncccn2)CC1 [Example 3, 3-[4-[4-(2-Pyrimidinyl)-1-piperazinyl]butyl]-2,4-imidazolidinedione, dihydrochloride] | 45.8 | 24 | 
3 | 10 | O=C1NC2(CCCCC2)C(=O)N1CCCCN1CCN(c2ncccn2)CC1 [Example 4, 5,5-Pentamethylene-3-[4-[4-(2-pyrimidinyl)-4-piperazinyl]butyl]-2,4-imidazolidinedione, dihydrochloride] |  |  | 
4 | 5 | CC1(C)NC(=O)N(CCCCN2CCN(c3ncccn3)CC2)C1=O [Example 5, 5,5-Dimethyl-3-[4-[4-(2-pyrimidinyl)-4-piperazinyl]butyl]-2,4-imidazolidinedione, hydrochloride] |  |  | 
5 |  | O=C1NC2(CCCC2)C(=O)N1CCCCN1CCN(c2ncccn2)CC1 [Example 7, 5,5-Tetramethylene-3-[4-[4-(2-pyrimidinyl)-4-piperazinyl]butyl]-2,4-imidazolidinedione, dihydrochloride] |  |  | inhibition at 10 µM ([2]; 10 μM, rat limbic tissue, 0.3 nM 3H-spiroperidol): 51%
6 |  | O=C1NC2(CCCC2)C(=O)N1CCCCN1CCC(O)(c2ccc(Cl)cc2)CC1 [Example 8, dihydrochloride] |  | 40 | 

Source: patent US4675403A, “3-Aminoalkyl derivatives of 5,5-disubstituted hydantoins with psychotropic activity” (American Home Products Corporation, priority 1985, dated 1987)
